The target in experiment [1] is T1, Aurora2 (Aurora-A) (Homo sapiens, UniProt O14965).
T1 construct: Aurora-A: the full length recombinant protein including an N-terminal poly-histidine tail has been expressed in E. coli; poly-histidine (N); made in house; host or cells: E. coli
T1 sequence (O14965 1-403): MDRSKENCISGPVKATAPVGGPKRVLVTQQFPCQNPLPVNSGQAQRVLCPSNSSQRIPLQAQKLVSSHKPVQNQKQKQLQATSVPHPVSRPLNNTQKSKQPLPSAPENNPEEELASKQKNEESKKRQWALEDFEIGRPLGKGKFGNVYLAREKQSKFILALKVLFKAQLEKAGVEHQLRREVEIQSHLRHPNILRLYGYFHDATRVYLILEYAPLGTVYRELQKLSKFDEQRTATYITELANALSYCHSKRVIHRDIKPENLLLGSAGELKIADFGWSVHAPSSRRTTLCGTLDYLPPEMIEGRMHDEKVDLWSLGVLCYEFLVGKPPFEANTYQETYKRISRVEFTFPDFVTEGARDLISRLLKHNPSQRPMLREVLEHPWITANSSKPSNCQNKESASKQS
The experiment in a line: Aurora 2 (Aurora A) kinase radioactivity scintillation assay using nickel chelate Flash plates. As to conditions: 10 nM Aurora-A, 500 nM NuMA substrate, 1 μM ATP with [33P] ATP, 10 mM MgCl2, 30 minutes, 37° C. It is filed as biochemical. The procedure, abridged:
(§1)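 10 nM Aurora-B or Aurora-A with 500 nM NuMA-His substrate, 1 μM ATP plus [³³P]ATP, in 50 mM NaCl, 1 mM DTT and 5 mM (B) or 10 mM (A) MgCl2, 30 min at 37° C on nickel-chelate plates. Incorporated ³³P counted after washing, background-subtracted; IC50 fitted from % inhibition versus concentration.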

Experiment [2] has as its target T2, Aurora1 (Aurora-B) (Homo sapiens, UniProt Q96GD4).
T2 construct: Aurora-B: the full length protein (His tagged in N-terminal) has been co expressed in SF9 cells; poly-histidine (N); made in house; host or cells: SF9 cells
In words: Aurora 1 (Aurora B) kinase radioactivity scintillation assay using nickel chelate Flash plates. The experiment is classed as biochemical. To be noted: 10 nM Aurora-B (co expressed with C3 fragment of INCEP), 500 nM NuMA substrate, 1 μM ATP with [33P] ATP, 5 mM MgCl2, 30 minutes, 37° C. A digest of the protocol:
as §1

Each structure is given as a SMILES string.

T2 sequence (Q96GD4 whole entry, species assumed): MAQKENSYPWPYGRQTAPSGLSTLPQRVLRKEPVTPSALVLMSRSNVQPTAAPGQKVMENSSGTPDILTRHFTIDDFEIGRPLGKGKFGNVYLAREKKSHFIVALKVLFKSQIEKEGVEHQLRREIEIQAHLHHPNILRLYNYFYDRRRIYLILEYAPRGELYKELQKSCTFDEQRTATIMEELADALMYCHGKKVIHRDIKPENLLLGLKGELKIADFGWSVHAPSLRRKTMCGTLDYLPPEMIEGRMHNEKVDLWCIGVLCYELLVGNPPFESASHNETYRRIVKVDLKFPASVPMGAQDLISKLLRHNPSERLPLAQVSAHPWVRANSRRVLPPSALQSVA
T2 sequence (Q9NQS7 821-918 partner limits assumed, species assumed): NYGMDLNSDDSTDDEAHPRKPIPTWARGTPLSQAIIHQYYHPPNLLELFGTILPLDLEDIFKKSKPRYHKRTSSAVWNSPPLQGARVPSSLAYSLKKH

Take `CC1(C)CC(=O)C2=C(C1)Nc1n[nH]cc1C2c1ccc(Sc2nc3cc(Cl)c(Cl)cc3[nH]2)o1` (centres unmarked) [Example 87, 4-[5-(5,6-Dichloro-1H-benzoimidazol-2-ylsulfanyl)-furan-2-yl]-7,7-dimethyl-2,4,6,7,8,9-hexahydro-pyrazolo[3,4-b]quinolin-5-one]: the IC50 (commonly the concentration that inhibits the measured activity by half) in experiment [1] was found to be 0.022 µM; in experiment [2], 0.008 µM.
On the same counts, the results for `O=C1CCCC2=C1C(c1ccc(Sc3nc4cc(Cl)ccc4o3)o1)c1c[nH]nc1N2` (centres unmarked) [Example 88, 4-[5-(5-Chloro-benzoxazol-2-ylsulfanyl)-furan-2-yl]-2,4,6,7,8,9-hexahydro-pyrazolo[3,4-b]quinolin-5-one; compound with trifluoro-acetic acid] are 0.362 µM and 0.091 µM.
The like results for `CCOC(=O)c1[nH]cc2c1NC1=C(C(=O)CCC1)C2c1ccc(Sc2nc3cc(O)ccc3[nH]2)o1` (centres unmarked) [Example 89, 9-[5-(5-Hydroxy-1H-benzoimidazol-2-ylsulfanyl)-furan-2-yl]-8-oxo-4,5,6,7,8,9-hexahydro-2H-pyrrolo[3,4-b]quinoline-3-carboxylic acid ethyl ester] were, in that order, 0.355 µM and 0.031 µM.
With `CC1(C)CC(=O)C2=C(C1)Nc1n[nH]cc1C2c1ccc(Sc2nc3cc(Cl)ccc3o2)o1` (centres unmarked) [Example 90, 4-[5-(5-Chloro-benzoxazol-2-ylsulfanyl)-furan-2-yl]-7,7-dimethyl-2,4,6,7,8,9-hexahydro-pyrazolo[3,4-b]quinoline-5-one], the IC50 turned out to be 0.67 µM in experiment [1] and 0.194 µM in experiment [2].
On to `Cc1c[nH]c(Sc2ccc(C3C4=C(CC(C)(C)CC4=O)Nc4n[nH]cc43)o2)n1` (centres unmarked) [Example 91, 7,7-Dimethyl-4-[5-(4-methyl-1H-imidazol-2-ylsulfanyl)-furan-2-yl]-2,4,6,7,8,9-hexahydro-pyrazolo[3,4-b]quinolin-5-one; compound with trifluoro-acetic acid], for which the IC50 in experiment [1] turned out to be 0.156 µM; in experiment [2], 0.086 µM.
`Cn1c(-c2ccc(Cl)cc2)cnc1Sc1ccc(C2C3=C(CCCC3=O)Nc3n[nH]cc32)o1` (centres unmarked) [Example 92, 4-{5-[5-(4-Chloro-phenyl)-1-methyl-1H-imidazol-2-ylsulfanyl]-furan-2-yl}-2,4,6,7,8,9-hexahydro-pyrazolo[3,4-b]quinolin-5-one]: the figures for the IC50 in experiment [1] and in experiment [2] were 2.09 µM and 0.233 µM, respectively.
On to `Cn1c(-c2ccc(Cl)cc2)cnc1Sc1ccc(C2C3=C(CC(C)(C)CC3=O)Nc3n[nH]cc32)o1` (centres unmarked) [Example 93, 4-{5-[5-(4-Chloro-phenyl)-1-methyl-1H-imidazol-2-ylsulfanyl]-furan-2-yl}-7,7-dimethyl-2,4,6,7,8,9-hexahydro-pyrazolo[3,4-b]quinolin-5-one], for which the figures for the IC50 in experiment [1] and in experiment [2] were 1.36 µM and 0.156 µM, respectively.
For `Cn1c(-c2ccc(Cl)cc2)cnc1Sc1ccc(C2C3=C(CNCC3=O)Nc3n[nH]cc32)o1` (centres unmarked) [Example 94, 4-{5-[5-(4-Chloro-phenyl)-1-methyl-1H-imidazol-2-ylsulfanyl]-furan-2-yl}-2,4,6,7,8,9-hexahydro-pyrazolo[3,4-b]-1,7-naphthyridin-5-one; compound with trifluoro-acetic acid], the figures for the IC50 in experiment [1] and in experiment [2] were 9.81 µM and 1.22 µM, respectively.
The like results for `O=C1CCCC2=C1C(c1ccc(Sc3nc4cc(C(F)(F)F)ccc4[nH]3)o1)c1cn[nH]c1N2` (centres unmarked) [Example 95, 4-[5-(5-Trifluoromethyl-1H-benzimidazol-2-ylsulfanyl)-furan-2-yl]-1,4,6,7,8,9-hexahydro-pyrazolo[3,4-b]quinolin-5-one] were, in that order, 0.061 µM and 0.009 µM.
Consider `CC1(C)CC(=O)C2=C(C1)Nc1n[nH]cc1C2c1ccc(Sc2nc3cc(C(F)(F)F)ccc3[nH]2)o1` (centres unmarked) [Example 96, 4-[5-(5-Trifluoromethyl-1H-benzoimidazol-2-ylsulfanyl)-furan-2-yl]-7,7-dimethyl-2,4,6,7,8,9-hexahydro-pyrazolo[3,4-b]quinolin-5-one], for which the values for the IC50 in experiment [1] and in experiment [2] were 0.058 µM and 0.023 µM, respectively.
On the same counts, the results for `O=C1CNCC2=C1C(c1ccc(Sc3nc4cc(C(F)(F)F)ccc4[nH]3)o1)c1c[nH]nc1N2` (centres unmarked) [Example 97] are 0.292 µM and 0.047 µM.
For the compound `Cc1nc(Sc2ccc(C3C4=C(CCCC4=O)Nc4n[nH]cc43)o2)[nH]c1C` (centres unmarked) [Example 98, 4-[5-(4,5-Dimethyl-1H-imidazol-2-ylsulfanyl)-furan-2-yl]-2,4,6,7,8,9-hexahydro-pyrazolo[3,4-b]quinolin-5-one], the IC50 in experiment [1] was determined as 0.338 µM; in experiment [2] it was 0.231 µM.
Take `Cc1nc(Sc2ccc(C3C4=C(CC(C)(C)CC4=O)Nc4n[nH]cc43)o2)[nH]c1C` (centres unmarked) [Example 99, 4-[5-(4,5-Dimethyl-1H-imidazol-2-ylsulfanyl)-furan-2-yl]-7,7-dimethyl-2,4,6,7,8,9-hexahydro-pyrazolo[3,4-b]quinolin-5-one]: the results for the IC50 in experiment [1] and in experiment [2] were 0.135 µM and 0.124 µM, respectively.
In the case of `Cc1nc(Sc2ccc(C3C4=C(CNCC4=O)Nc4n[nH]cc43)o2)[nH]c1C` (centres unmarked) [Example 100, 4-[5-(4,5-Dimethyl-1H-imidazol-2-ylsulfanyl)-furan-2-yl]-2,4,6,7,8,9-hexahydro-pyrazolo[3,4-b]-1,7-naphthyridin-5-one; compound with trifluoro-acetic acid], the IC50 turned out to be 5.44 µM in experiment [1] and 5.43 µM in experiment [2].
On the same counts, the results for `Cc1ccc2[nH]c(Sc3ccc(C4C5=C(CCCC5=O)Nc5[nH]ncc54)s3)nc2c1` (centres unmarked) [Example 101, 4-[5-(5-Methyl-1H-benzimidazol-2-ylsulfanyl)-thiophen-2-yl]-1,4,6,7,8,9-hexahydro-pyrazolo[3,4-b]quinolin-5-one] are 1.71 µM and 0.06 µM.
For `Cc1ccc2[nH]c(Sc3ccc(C4C5=C(CC(C)(C)CC5=O)Nc5n[nH]cc54)s3)nc2c1` (centres unmarked) [Example 102, 7,7-Dimethyl-4-[5-(5-methyl-1H-benzoimidazol-2-ylsulfanyl)-thiophen-2-yl]-2,4,6,7,8,9-hexahydro-pyrazolo[3,4-b]quinolin-5-one], the values for the half-maximal inhibitory concentration (IC50) in experiment [1] and in experiment [2] were 0.596 µM and 0.045 µM, respectively.
On the same counts, the results for `Cc1ccc2[nH]c(Sc3ccc(C4C5=C(CNCC5=O)Nc5n[nH]cc54)s3)nc2c1` (centres unmarked) [Example 103, 4-[5-(5-Methyl-1H-benzoimidazol-2-ylsulfanyl)-thiophen-2-yl]-2,4,6,7,8,9-hexahydro-pyrazolo[3,4-b]-1,7-naphthyridin-5-one; compound with trifluoro-acetic acid] are 4.72 µM and 0.299 µM.
On to `CCOC(=O)c1[nH]cc2c1NC1=C(C(=O)CCCC1)C2c1ccc(Sc2nc3ccccc3[nH]2)o1` (centres unmarked) [Example 107, 10-[5-(1H-Benzoimidazol-2-ylsulfanyl)-furan-2-yl]-9-oxo-2,4,5,6,7,8,9,10-octahydro-2,4-diaza-cyclohepta[f]indene-3-carboxylic acid ethyl ester, compound with trifluoroacetic acid], for which the results for the IC50 in experiment [1] and in experiment [2] were 2.94 µM and 2.58 µM, respectively.
On the same counts, the results for `CCOC(=O)c1[nH]cc2c1NC1=C(C(=O)CCC1)C2c1ccc(Sc2nc3cc(C)ccc3[nH]2)o1` (centres unmarked) [Example 108, 9-[5-(5-Methyl-1H-benzimidazol-2-ylsulfanyl)-furan-2-yl]-8-oxo-4,5,6,7,8,9-hexahydro-2H-pyrrolo[3,4-b]quinoline-3-carboxylic acid ethyl ester] are 0.041 µM and 0.008 µM.
For `CCOC(=O)c1[nH]cc2c1NC1=C(C(=O)CC(C)(C)C1)C2c1ccc(Sc2nc3cc(C)ccc3[nH]2)o1` (centres unmarked) [Example 109, 6,6-Dimethyl-9-[5-(5-methyl-1H-benzimidazol-2-ylsulfanyl)-furan-2-yl]-8-oxo-4,5,6,7,8,9-hexahydro-2H-pyrrolo[3,4-b]quinoline-3-carboxylic acid ethyl ester], the IC50 in experiment [1] amounted to 0.063 µM; in experiment [2], 0.017 µM.
`CCOC(=O)c1[nH]cc2c1NC1=C(C(=O)CNC1)C2c1ccc(Sc2nc3cccnc3[nH]2)o1` (centres unmarked) [Example 113, 9-[5-(3H-Imidazo[4,5-b]pyridin-2-ylsulfanyl)-furan-2-yl]-8-oxo-4,5,6,7,8,9-hexahydro-2H-pyrrolo[3,4-b][1,7]naphthyridine-3-carboxylic acid ethyl ester]: the IC50 in experiment [1] came to 0.112 µM; in experiment [2], 0.023 µM.
`CCOC(=O)c1[nH]cc2c1NC1=C(C(=O)CCC1)C2c1ccc(Sc2nc3ccncc3[nH]2)o1` (centres unmarked) [Example 117, 9-[5-(3H-Imidazo[4,5-c]pyridin-2-ylsulfanyl)-furan-2-yl]-8-oxo-4,5,6,7,8,9-hexahydro-2H-pyrrolo[3,4-b]quinoline-3-carboxylic acid ethyl ester]: the IC50 is 3.09 µM in experiment [1] and 0.194 µM in experiment [2].

Source of the values: patent US8163768B2, “1,4-dihydropyridine-fused heterocycles, process for preparing the same, use and compositions containing them” (Aventis Pharma S.A.., priority 2005, dated 2012).
